Test results as given in PubChem BioAssay (NCI).
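Each compound was tested at five concentrations against cells in 96-well plates for 48 hours. GI50 marks 50% less growth. Definition used: TGI = concentration required for complete inhibition of growth.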

What was measured:
Assay in all cases: NCI tumour cell line growth inhibition, 48 h
786-0 renal = test system: 786-0 renal
A498 renal = test system: A498 renal
A549 NSCLC = test system: A549 NSCLC
ACHN renal = test system: ACHN renal
BT-549 breast = test system: BT-549 breast
CAKI-1 renal = test system: CAKI-1 renal
CCRF-CEM leukemia = test system: CCRF-CEM leukemia
COLO 205 colon = test system: COLO 205 colon
DU-145 prostate = test system: DU-145 prostate
EKVX NSCLC = test system: EKVX NSCLC
HCC-2998 colon = test system: HCC-2998 colon
HCT-116 colon = test system: HCT-116 colon
HCT-15 colon = test system: HCT-15 colon
HL-60(TB) leukemia = test system: HL-60(TB) leukemia
HOP-62 NSCLC = test system: HOP-62 NSCLC
HOP-92 NSCLC = test system: HOP-92 NSCLC
HS 578T breast = test system: HS 578T breast
HT29 colon = test system: HT29 colon
IGROV1 ovarian = test system: IGROV1 ovarian
K-562 leukemia = test system: K-562 leukemia
KM12 colon = test system: KM12 colon
LOX IMVI melanoma = test system: LOX IMVI melanoma
M14 melanoma = test system: M14 melanoma
MALME-3M melanoma = test system: MALME-3M melanoma
MCF7 breast = test system: MCF7 breast
MDA-MB-231 breast = test system: MDA-MB-231 breast
MDA-MB-435 = test system: MDA-MB-435
MOLT-4 leukemia = test system: MOLT-4 leukemia
NCI-H226 lung = test system: NCI-H226 lung
NCI-H23 lung = test system: NCI-H23 lung
NCI-H460 lung = test system: NCI-H460 lung
NCI-H522 lung = test system: NCI-H522 lung
NCI/ADR-RES ovarian = test system: NCI/ADR-RES ovarian
OVCAR-3 ovarian = test system: OVCAR-3 ovarian
OVCAR-4 ovarian = test system: OVCAR-4 ovarian
OVCAR-5 ovarian = test system: OVCAR-5 ovarian
OVCAR-8 ovarian = test system: OVCAR-8 ovarian
PC-3 prostate = test system: PC-3 prostate
RPMI-8226 leukemia = test system: RPMI-8226 leukemia
RXF 393 renal = test system: RXF 393 renal
SF-268 CNS = test system: SF-268 CNS
SF-295 CNS = test system: SF-295 CNS
SF-539 CNS = test system: SF-539 CNS
SK-MEL-2 melanoma = test system: SK-MEL-2 melanoma
SK-MEL-28 melanoma = test system: SK-MEL-28 melanoma
SK-MEL-5 melanoma = test system: SK-MEL-5 melanoma
SK-OV-3 ovarian = test system: SK-OV-3 ovarian
SN12C renal = test system: SN12C renal
SNB-19 CNS = test system: SNB-19 CNS
SNB-75 CNS = test system: SNB-75 CNS
SR leukemia = test system: SR leukemia
SW-620 colon = test system: SW-620 colon
T-47D breast = test system: T-47D breast
TK-10 renal = test system: TK-10 renal
U251 CNS = test system: U251 CNS
UACC-257 melanoma = test system: UACC-257 melanoma
UACC-62 melanoma = test system: UACC-62 melanoma
UO-31 renal = test system: UO-31 renal

Cc1cc(Cl)ccc1NS(=O)(=O)c1ccc(-c2cnc(C3CC3)o2)cc1
GI50 (786-0 renal): 0.561 µM | TGI (786-0 renal): 17.5 µM | GI50 (A498 renal): 0.0915 µM | TGI (A498 renal): 0.841 µM | GI50 (A549 NSCLC): 0.372 µM | TGI (A549 NSCLC): 17 µM | GI50 (ACHN renal): 0.649 µM | TGI (ACHN renal): 20.5 µM | GI50 (BT-549 breast): 1.32 µM | TGI (BT-549 breast): 15.5 µM | GI50 (CAKI-1 renal): 0.127 µM | TGI (CAKI-1 renal): 17.6 µM | GI50 (CCRF-CEM leukemia): 0.239 µM | TGI (CCRF-CEM leukemia): 38.3 µM | GI50 (COLO 205 colon): 0.36 µM | TGI (COLO 205 colon): 4.44 µM | GI50 (DU-145 prostate): 0.395 µM | TGI (DU-145 prostate): 17.9 µM | GI50 (EKVX NSCLC): 0.411 µM | TGI (EKVX NSCLC): 28.5 µM | GI50 (HCC-2998 colon): 0.463 µM | TGI (HCC-2998 colon): 12 µM | GI50 (HCT-116 colon): 0.3 µM | TGI (HCT-116 colon): 11.9 µM | GI50 (HCT-15 colon): 0.0908 µM | TGI (HCT-15 colon): 12.2 µM | GI50 (HL-60(TB) leukemia): 0.202 µM | TGI (HL-60(TB) leukemia): 2.89 µM | GI50 (HOP-62 NSCLC): 0.556 µM | TGI (HOP-62 NSCLC): 21.5 µM | GI50 (HOP-92 NSCLC): 1.05 µM | TGI (HOP-92 NSCLC): 13 µM | GI50 (HS 578T breast): 0.275 µM | TGI (HS 578T breast): 22.2 µM | GI50 (HT29 colon): 0.267 µM | TGI (HT29 colon): 11.8 µM | GI50 (IGROV1 ovarian): 0.365 µM | TGI (IGROV1 ovarian): 15.5 µM | GI50 (K-562 leukemia): 0.0723 µM | TGI (K-562 leukemia): > 100 µM | GI50 (KM12 colon): 0.211 µM | TGI (KM12 colon): 15.3 µM | GI50 (LOX IMVI melanoma): 0.622 µM | TGI (LOX IMVI melanoma): 14.2 µM | GI50 (M14 melanoma): 0.254 µM | TGI (M14 melanoma): 15.3 µM | GI50 (MALME-3M melanoma): 0.567 µM | TGI (MALME-3M melanoma): 26.7 µM | GI50 (MCF7 breast): 0.0619 µM | TGI (MCF7 breast): 14.7 µM | GI50 (MDA-MB-231 breast): 0.94 µM | TGI (MDA-MB-231 breast): 20 µM | GI50 (MDA-MB-435): 0.0838 µM | TGI (MDA-MB-435): 15.5 µM | GI50 (MOLT-4 leukemia): 0.405 µM | TGI (MOLT-4 leukemia): > 44.2 µM | GI50 (NCI-H226 lung): 1.04 µM | TGI (NCI-H226 lung): 16.5 µM | GI50 (NCI-H23 lung): 0.556 µM | TGI (NCI-H23 lung): 17.5 µM | GI50 (NCI-H460 lung): 0.37 µM | TGI (NCI-H460 lung): 12.4 µM | GI50 (NCI-H522 lung): 0.251 µM | TGI (NCI-H522 lung): 4.34 µM | GI50 (NCI/ADR-RES ovarian): 0.178 µM | TGI (NCI/ADR-RES ovarian): 13 µM | GI50 (OVCAR-3 ovarian): 0.186 µM | TGI (OVCAR-3 ovarian): 5.41 µM | GI50 (OVCAR-4 ovarian): 2.98 µM | TGI (OVCAR-4 ovarian): 20.6 µM | GI50 (OVCAR-5 ovarian): 0.572 µM | TGI (OVCAR-5 ovarian): 17.2 µM | GI50 (OVCAR-8 ovarian): 0.427 µM | TGI (OVCAR-8 ovarian): 15.2 µM | GI50 (PC-3 prostate): 0.254 µM | TGI (PC-3 prostate): 13.8 µM | GI50 (RPMI-8226 leukemia): 0.343 µM | TGI (RPMI-8226 leukemia): 23.1 µM | GI50 (RXF 393 renal): 0.268 µM | TGI (RXF 393 renal): 17.7 µM | GI50 (SF-268 CNS): 2.98 µM | TGI (SF-268 CNS): 23 µM | GI50 (SF-295 CNS): 0.0799 µM | TGI (SF-295 CNS): 2.02 µM | GI50 (SF-539 CNS): 0.215 µM | TGI (SF-539 CNS): 2.51 µM | GI50 (SK-MEL-2 melanoma): 0.677 µM | TGI (SK-MEL-2 melanoma): 22 µM | GI50 (SK-MEL-28 melanoma): 4.9 µM | TGI (SK-MEL-28 melanoma): 22.8 µM | GI50 (SK-MEL-5 melanoma): 0.517 µM | TGI (SK-MEL-5 melanoma): 6.88 µM | GI50 (SK-OV-3 ovarian): 4.32 µM | TGI (SK-OV-3 ovarian): 26.2 µM | GI50 (SN12C renal): 0.578 µM | TGI (SN12C renal): 16.5 µM | GI50 (SNB-19 CNS): 0.395 µM | TGI (SNB-19 CNS): 18.7 µM | GI50 (SNB-75 CNS): 0.153 µM | TGI (SNB-75 CNS): 0.667 µM | GI50 (SR leukemia): 0.0967 µM | TGI (SR leukemia): 28.4 µM | GI50 (SW-620 colon): 0.198 µM | TGI (SW-620 colon): 16.1 µM | GI50 (T-47D breast): 0.369 µM | TGI (T-47D breast): 42.4 µM | GI50 (TK-10 renal): 11.8 µM | TGI (TK-10 renal): 31.1 µM | GI50 (U251 CNS): 0.384 µM | TGI (U251 CNS): 15.7 µM | GI50 (UACC-257 melanoma): 3.85 µM | TGI (UACC-257 melanoma): 25.8 µM | GI50 (UACC-62 melanoma): 0.169 µM | TGI (UACC-62 melanoma): 17.1 µM | GI50 (UO-31 renal): 0.619 µM | TGI (UO-31 renal): 16.9 µM
